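Compound exposure: 48 hours, 5 concentrations, 96-well plates. GI50 = concentration required for 50% inhibition of growth.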 Calls of active or inactive are those of the source. Cut-off read from the data, not from the text of the source: active = GI50 up to about 1.1 µM and inactive = higher.
What was measured:
Test in all cases: growth of human tumour cells (NCI), 48 h
BT-549 = test system: BT-549
T47D = test system: T47D
M19-MEL = test system: M19-MEL
KM-20L2 = test system: KM-20L2
DLD-1 = test system: DLD-1
HOP-18 = test system: HOP-18
LXFL 529 = test system: LXFL 529
DMS-114 = test system: DMS-114

Row | SMILES | GI50 (BT-549) | GI50 (T47D) | other results
1 | CC(N/N=C(\S)N1CCCC1)c1cccnn1 (centres undefined) | 0.433 µM (active) | 0.553 µM (active) | 
2 | O=C1OC(C(O)C(O)C(O)CO)C(O)C1O (centres undefined) | > 100 µM (inactive) | > 100 µM (inactive) | 
3 | O=C(O)c1ccc([N+](=O)[O-])c(P(=O)(O)O)c1 | > 100 µM (inactive) | > 100 µM (inactive) | 
4 | Cc1ccc(/C(O)=C/c2nc3ccccc3oc2=O)cc1 | 44.4 µM (inactive) | 77.6 µM (inactive) | 
5 | CC1=Nn2c(nc3sc4c(c3c2=O)CCCC4)SC1 | 31.5 µM (inactive) | 58.5 µM (inactive) | 
6 | Cc1ccc(S(=O)(=O)Oc2cc(S(=O)(=O)O)cc3cc(S(=O)(=O)O)cc(N)c23)cc1 | > 100 µM (inactive) | > 100 µM (inactive) | 
7 | CC(C)=CCc1c(O)cc2oc(-c3ccc(O)cc3O)cc(=O)c2c1O | 29.8 µM (inactive) | 19 µM (inactive) | 
8 | O=c1[nH]c(N/N=C\C(O)C(O)C(O)CO)nc2ccccc12 (centres undefined) | > 100 µM (inactive) | > 100 µM (inactive) | 
9 | CCOC1SC(SC)=NN1C(=O)C(OC(C)=O)C(OC(C)=O)C(OC(C)=O)C(OC(C)=O)C(=O)N1N=C(SC)SC1OCC (centres undefined) | > 100 µM (inactive) | > 100 µM (inactive) | 
10 | C=CCOCn1cnc2c(N)ncnc21 |  | > 100 µM (inactive) | 
11 | COc1cc2c(cc1OC)-c1c(oc3cc(OC4OC(CO)C(O)C(O)C4O)c(OC)cc3c1=O)C(O)O2 (centres undefined) | > 100 µM (inactive) |  | 
12 | Cc1ccc(/N=C2\C(=N/c3ccc(C)cc3)N(c3ccc(C)cc3)C(=S)N2C(=O)c2ccccc2)cc1 | > 100 µM (inactive) | > 100 µM (inactive) | 
13 | C[C@]12CC[C@H](O)CC1=CC[C@@H]1C2CC[C@]2(C)c3nn(-c4ccc(F)cc4)nc3CC12 (some centres undefined) | 63.4 µM (inactive) | 24.4 µM (inactive) | 
14 | CN(C)C1(C#N)CCC2(CC1)OCCO2 |  |  | GI50 (M19-MEL): > 100 µM (inactive); GI50 (KM-20L2): > 100 µM (inactive)
15 | O=C(CNc1nncs1)NO |  |  | GI50 (M19-MEL): > 100 µM (inactive); GI50 (DLD-1): > 100 µM (inactive); GI50 (HOP-18): > 100 µM (inactive); GI50 (LXFL 529): > 100 µM (inactive); GI50 (DMS-114): 54.3 µM (inactive); GI50 (KM-20L2): > 100 µM (inactive)
16 | COC(=O)C1SC[C@H]2C(=O)N(c3ccccc3)C(=O)N12 (some centres undefined) | > 100 µM (inactive) | > 100 µM (inactive) | 
17 | Cc1cc(C)c2ccc(N3CCNCC3)nc2n1 | > 100 µM (inactive) |  | 
18 | COC(=O)[C@H](C)NC(=O)[C@H](NS(=O)(=O)c1nc2ccccc2s1)c1ccccc1 | 34.7 µM (inactive) | 15.3 µM (inactive) | 
19 | C=CCCCCCCCCC(=O)ON(Cc1ccc(O)c(OC)c1)C(=O)C(F)(F)F |  | 72.1 µM (inactive) | 
20 | CC1(C)OC2C(CO)OC(n3cnc(N)nc3=O)C2O1 (centres undefined) | > 100 µM (inactive) | > 100 µM (inactive) | 

Row | SMILES | GI50 (BT-549) | GI50 (T47D) | other results
21 | C=Cc1cncc(C#N)c1CCc1c(C#N)cncc1C=C |  |  | GI50 (M19-MEL): > 10 µM (inactive); GI50 (DLD-1): > 10 µM (inactive); GI50 (HOP-18): > 10 µM (inactive); GI50 (LXFL 529): > 10 µM (inactive); GI50 (DMS-114): > 10 µM (inactive); GI50 (KM-20L2): > 10 µM (inactive)
22 | C(=N\N=C1NCCN1)/c1ccc2ccccc2c1 | 5.53 µM (inactive) | 23.1 µM (inactive) | 
23 | O=C(ON=C1c2ccccc2C(Br)C(Br)c2ccccc21)c1ccccc1 (centres undefined) | 19.6 µM (inactive) | 9.57 µM (inactive) | 
24 | Cc1cc(=O)[nH]c2cc(NC(=O)C(CCCNC(=N)N)NC(=O)OCc3ccccc3)ccc12 (centres undefined) | > 100 µM (inactive) | > 100 µM (inactive) | 
25 | O=C1CC(C(O)C(O)C(O)CO)CC(=O)N1 (centres undefined) | 74 µM (inactive) | > 100 µM (inactive) | 
26 | C=CCC1(O)C(=O)OC2C(O)COC21O (centres undefined) | > 100 µM (inactive) | > 100 µM (inactive) | 
27 | O=C(Cc1ccc(OCc2cccc(Cl)c2)cc1)NO | 26.2 µM (inactive) | 5.74 µM (inactive) | 
28 | COC(=O)C1(Cc2ccccc2)Cc2cc3c(cc2C1O)CCC3 (centres undefined) | 15.5 µM (inactive) | 28.5 µM (inactive) | 
29 | Cc1cccc2c1C/C(=C\c1cccc(C)c1C(=O)O)C2=O | > 100 µM (inactive) | > 100 µM (inactive) | 
30 | CC(=O)OCC(OC(C)=O)C(OC(C)=O)C(OC(C)=O)C(=O)CNn1c(-c2ccccc2Cl)nc2ccc(Br)cc2c1=O (centres undefined) |  |  | GI50 (M19-MEL): > 100 µM (inactive); GI50 (LXFL 529): 36.9 µM (inactive); GI50 (DMS-114): 30.4 µM (inactive); GI50 (KM-20L2): > 100 µM (inactive)
31 | c1ccc(Cc2cc(-c3ccccc3)[nH]n2)cc1 |  | 33.3 µM (inactive) | 
32 | O=C1c2ccccc2C(=O)c2c1ccc1nc3c(nc21)-c1c2ccccc2cc2cccc-3c12 | 80.2 µM (inactive) | 33.6 µM (inactive) | 
33 | O=C(c1ccccc1)N(C(=O)c1ccccc1)c1nc(SCc2ccccc2)ns1 | 28.8 µM (inactive) | 25 µM (inactive) | 
34 | O=c1/c(=C/c2ccccn2)sc2nc3cc4c(cc3n12)OCCO4 | > 100 µM (inactive) | > 100 µM (inactive) | 
35 | CC(O)(/C=C/c1ccccc1)P(=O)(O)c1ccccc1 (centres undefined) |  | > 100 µM (inactive) | 
36 | CN[C@H](C)[C@@H](OC)c1ccccc1 |  |  | GI50 (M19-MEL): > 100 µM (inactive); GI50 (DLD-1): > 100 µM (inactive); GI50 (HOP-18): > 100 µM (inactive); GI50 (LXFL 529): > 100 µM (inactive); GI50 (DMS-114): > 100 µM (inactive); GI50 (KM-20L2): > 100 µM (inactive)
37 | Cc1ccc(SCC(CF)OC(C)n2cnc3c(Cl)nc(N)nc32)cc1 (centres undefined) | 16 µM (inactive) | 54.6 µM (inactive) | 
38 | CC(=O)NC(CCCCNCc1ccccc1)C(=O)NCc1ccccc1 (centres undefined) |  |  | GI50 (M19-MEL): > 100 µM (inactive); GI50 (DLD-1): > 100 µM (inactive); GI50 (LXFL 529): > 100 µM (inactive); GI50 (DMS-114): > 100 µM (inactive); GI50 (KM-20L2): > 100 µM (inactive)
39 | COC(=O)c1c(OC(C)=O)ccc2c1c1c(OC(C)=O)c3ccccc3c(OC(C)=O)c1n2Cc1ccccc1 | 4.76 µM (inactive) | 1.16 µM (inactive) | 
